Results: publication PMC11729425 (ACS Pharmacology & Translational Science, 2024)

Experiments:
Aged C57BL/6J mice = assay: Grip strength; format: in vivo, C57BL/6JRj mice; conditions: 1 mg/kg in the food, week 8, 4 limbs, normalized to BW
Procedure: Grip strength was evaluated using a grip strength test. Each mouse’s grip strength was measured using a pulldown grid assembly connected to a grip strength meter (Columbus Instruments). The mouse was pulled along a straight line parallel to the grip to determine peak force. The experiment was conducted three times, and the highest recorded value was considered for the analysis.

[1] = tested on: gastrocnemius muscles of aged mice; assay: RNAseq / gene set enrichment analysis of gastrocnemius muscle of aged mice; format: in vivo, C57BL/6JRj mice
Procedure: Figure 3 ALT-007 preserves muscle mass and rewires skeletal muscle gene expression during aging. (A) Lean mass measured by echoMRI after 11 weeks of treatment (ALT-007:1 mg/kg; DMSO: equivalent volume, for 20 weeks). (B) Gastrocnemius and (C) Tibialis anterior muscle weight after 20 weeks of treatment. N = 12 per group. (D) Total ceramide levels measured in the gastrocnemius muscle. (E) Volcano plot of mitochondrial, proteostasis, amino acids, biosynthetic processes, and neuronal-related gene sets highlighted. (F,G) Gene set enrichment analysis (GSEA) of (F) pathways involved in protein folding and degradation and (G) neurogenesis pathways in the skeletal muscle of mice treated with ALT-007 (N = 5 in DMSO and N = 4 in ALT-007-treated groups). Adjusted P values in GSEA comparison are indicated as follows: *adjusted P < 0.05; **adjusted P < 0.01; ***adjusted P < 0.001.
RNA seq analysis was performed as previously described. Changes in cell composition were assessed by gene set enrichment analysis (GSEA) with the clusterProfiler package (Yu G. et al., 2012) and the MsigDB v7.5.1 mouse cell type signature set, accessed through the msigdbr package was performed. Only the gene sets relevant to skeletal muscle and neuronal cell types were retained.
1.2. Supplementary Figure 2
Gene set enrichment analysis using the MsigDB mouse cell type signature sets. Only the gene sets relevant to skeletal muscle and neuronal cell types were retained.
GSEA was performed with the cluserProfiler package and gene sets were accessed through the MsigDBr package.
(1 picture or pasted object on this page, not shown here)

[2] = Chronic (20 weeks) oral administration in aged mice: body weight, food intake, organ mass, plasma citrulline; format: in vivo, C57BL/6JRj mice; conditions: 1 mg/kg in the food
Procedure: Figure 2 Chronic oral administration of ALT-007 enhances physical fitness in aged mice. (A) Schematic representation of the study time-line. Compounds were mixed in the food, ALT-007 at 1 mg/kg and DMSO at equivalent volume. At week 0: young mice were 2 months old, and the old mice were 18 months old. (B) Body weight curve over the course of the study (20 weeks). (C) Food intake curve throughout the study. (D–G) Organ mass at sacrifice (week 20), normalized to body weight. (H) Oral glucose tolerance test (oGTT) performed at week 17. (I) Best performance during hanging time normalized to BW at week 7. (J) Best performance during grip strength on the 4 limbs normalized to BW at week 8. (K) Rotarod’s best latency time at week 9. (L) VO2Max performed at week 11. (M) Uphill maximum running time performed at week 13. N = 9 per group. (N) Difference of CK level after—before 90 min downhill running performed at week 15. N = 6 in young, N = 8 in DMSO and N = 7 in ALT-007-treated groups. (O–Q) Measurement of kCAL/h at night (O) and at day (P) and movement recording in x, y, z (Q) during 24 h in CLAMS at week 19. N = 12 per group unless specified otherwise. Quantitative data are expressed as median with IQR. *P < 0.05, **P < 0.01, ***P < 0.001, ****P < 0.0001. ANOVA test was used for multiple comparison, and the Mann–Whitney U test when comparing 2 groups. All tests were 2 sided.
Young (2 month-old) and aged (18 month-old) male C57BL/6JRj mice were purchased from Janvier Laboratories. Housing conditions involved maintaining two to five animals per cage under a 12 h light/dark cycle, with continuous access to food and water. Animals were fed a standard chow diet (Safe 150) with the following composition: 56.9% nitrogen-free extract, of which 41.0% was starch and 3.4% was sugars, 18.0% crude protein, 4.8% crude fat, 4.2% crude ash, 4.1% crude fiber and 12.0% moisture. Young (2 month-old) and old (18 month-old) mice were monitored for 20 weeks. Mice were administered either DMSO as a control or ALT-007. ALT-007 was dissolved in DMSO or DMSO alone were mixed in the food (1 mg/kg for ALT-007 or equivalent volume of DMSO for controls). Body weight and food intake measurements were recorded weekly until sacrifice.
Prior to sacrifice, mice were fasted for 4 h in the morning. Animals were sacrificed between 1:30 and 4 p.m. Mice were anesthetized with isoflurane, followed by a complete blood draw from the vena cava and perfusion with cold phosphate-buffered saline. Immediately thereafter, various tissues including liver, kidney, spleen, heart, brain, gastrocnemius muscle and tibialis anterior muscle were harvested, weighted and promptly flash-frozen in liquid nitrogen.
1.1. Supplementary Figure 1
(A) Citrulline levels in the plasma of mice treated with ALT-007 at 1 mg/kg or vehicle […]

[3] = set-up: method as in PMID 29669694; conditions: compared to Myriocin; cited from earlier work
[4] = gastrocnemius of aged mice, ALT-007 vs DMSO

## COc1cc(C(=O)N2CC[C@H](NC(=O)c3ccccc3OC(F)(F)F)c3c2cnn3C(C)C)cnc1OC [ALT-007]
Aged C57BL/6J mice
  grip strength: increased compared to aged control mice
[1]; [4]
  neurogenesis pathways in the muscle, GSEA: remarkable upregulation of neurogenesis pathways
  proteostasis pathways (protein folding and degradation), GSEA: enrichment of several proteostasis pathways
  ribosomal and translation pathways, GSEA: significantly attenuated
[1]; old treated vs old untreated mice
  neuronal cells in the skeletal muscles (GSEA, MsigDB mouse cell type signature sets): increases neuronal cells
[2]; 20 weeks
  body weight: stable body weight
  food intake: absence of changes in food intake
[2]; 20 weeks, vs untreated mice
  gastrointestinal (GI) toxicity by plasma citrulline levels: no gastrointestinal (GI) toxicity
[2]; at sacrifice week 20, normalized to body weight
  tissue weights relative to control: absence of changes
[3]
  metabolic stability: improved
